Experimental data reported in PubChem BioAssay (NCI).
Several values for one entry are separate records, joined by “and”; a condition that tells them apart may be missing. Equal values may be shown once.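 Following 48 hours of exposure in 96-well plates, responses at five concentrations were used to interpolate endpoints linearly. GI50 marks 50% less growth. TGI: concentration producing complete growth inhibition.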

Legend:
Assay in all cases: DTP human tumour cell line panel, 48 h
HCT-116 colon = system: HCT-116 colon
NCI-H460 lung = system: NCI-H460 lung
ACHN renal = system: ACHN renal
NCI-H23 lung = system: NCI-H23 lung
A498 renal = system: A498 renal
OVCAR-5 ovarian = system: OVCAR-5 ovarian
RPMI-8226 leukemia = system: RPMI-8226 leukemia
SNB-75 CNS = system: SNB-75 CNS
NCI-H226 lung = system: NCI-H226 lung
HOP-92 NSCLC = system: HOP-92 NSCLC

SMILES | TGI (HCT-116 colon) [µM] | TGI (NCI-H460 lung) | TGI (ACHN renal) | TGI (NCI-H23 lung) | TGI (A498 renal) | TGI (OVCAR-5 ovarian) [µM] | TGI (RPMI-8226 leukemia) | TGI (SNB-75 CNS) [µM] | TGI (NCI-H226 lung) [µM] | TGI (HOP-92 NSCLC) [µM] | GI50 (NCI-H226 lung) [µM] | GI50 (NCI-H460 lung) [µM] | GI50 (ACHN renal) [µM] | GI50 (NCI-H23 lung) [µM] | GI50 (A498 renal) [µM] | GI50 (HOP-92 NSCLC) [µM] | GI50 (OVCAR-5 ovarian) [µM] | GI50 (RPMI-8226 leukemia) [µM] | GI50 (SNB-75 CNS) [µM] | GI50 (HCT-116 colon) [µM]
COc1ccc([N+](=O)[O-])c2c(NCC(O)CO)ccnc12 (stereo not given) | > 100 | 52 µM | > 100 µM | 40.4 µM | 76.9 µM | > 100 | > 100 µM | > 100 |  |  |  |  |  |  |  |  |  |  |  | 
Cn1c(=O)c2c(nc3n2CCC(=O)N3)n(C)c1=O |  | > 100 µM | > 100 µM | > 100 µM | > 100 µM | > 100 |  |  | > 100 | > 100 |  |  |  |  |  |  |  |  |  | 
COC(=O)c1ccc2c(c1)c1c(C)c3cnccc3c(C)c1n2C |  | 0.674 µM | 0.299 µM | 0.328 µM | 0.166 µM | 1.26 | 0.409 µM | 0.563 | 0.341 | 0.584 | 0.0574 | 0.178 | 0.0297 | 0.053 | 0.0348 | 0.0653 | 0.117 | 0.0475 | 0.072 | 
c1cncc(C2c3[nH]c4ccccc4c3CCN2CCN2CCCCC2)c1 (stereo not given) | > 100 | > 100 µM | > 100 µM | > 100 µM | > 100 µM | > 100 | > 100 µM | > 100 |  | > 100 |  |  |  |  |  |  |  |  |  | 
Cc1ccc(S(=O)(=O)ON/N=C2/C3OC3[C@@H]3CCCC[C@H]23)cc1 (stereo not given in full) |  | > 100 µM | > 100 µM | > 100 µM |  |  | > 100 µM | > 100 | > 100 | > 100 |  |  |  |  |  |  |  |  |  | 
C=CCN(N=O)C(=O)N(CCC)CCCC(NC(C)=O)C(=O)NCc1ccccc1 (stereo not given) |  | > 100 µM | > 100 µM | > 100 µM | > 100 µM | > 100 | > 100 µM | > 100 |  |  |  |  |  |  |  |  |  |  |  | 
CCOC(=O)/C=C/c1ccc(C(=O)OCC)[nH]1 | > 100 | 14.5 µM | > 100 µM | > 100 µM | 12.1 µM | > 100 | > 100 µM | 35.9 | > 100 |  | 15.4 | 3.08 | 6.88 | 7.16 | 1.61 |  | 19.5 | 5.32 | 2.82 | 4.56
CN(C)CCNC(=O)c1cccc(CO)c1[N+](=O)[O-] | > 100 | > 100 µM | > 100 µM | > 100 µM | > 100 µM | > 100 |  | > 100 | > 100 |  |  |  |  |  |  |  |  |  |  | 
CN(C)CCNc1cccc2sc3ccc(O)cc3c(=O)c12 | 9.68 | 2.47 µM | 3.78 µM | 17 µM | 24.1 µM | 22.8 | 4.98 µM | 12.2 | 23.1 |  | 5.94 | 0.548 | 1.43 | 4.03 | 10.8 |  | 7.32 | 1.84 | 2.33 | 2.12
OC1CCC(Oc2cccc3cnc(Nc4ccc5nc[nH]c5c4)nc23)CC1 (stereo not given) | 12 | 11.8 µM | > 100 µM | 1.63 µM | 0.866 µM | 30.7 | 0.659 µM | 2.21 |  | 29.4 |  | 0.275 | 0.313 | 0.21 | 0.335 | 0.467 | 0.327 | 0.219 | 0.12 | 0.191
CC[C@@]1(OC(=O)CCC(=O)O)C(=O)OCc2c1cc1n(c2=O)Cc2cc3ccccc3nc2-1 |  | 0.592 µM | 0.424 µM | 0.838 µM | 1.27 µM | 11.9 | 3.87 µM | 2.54 | 3.13 | 6.08 |  |  |  |  |  |  |  |  |  | 
O=C1OCC2=Nc3cccc4cccc(c34)N12 | > 100 | > 100 µM | > 100 µM | > 100 µM |  |  |  | > 100 | > 100 |  |  |  |  |  |  |  |  |  |  | 
CCCCCCCCCCCCC(SCCNC(=O)CCNC(=O)C(O)C(C)(C)COP(=O)(O)OP(=O)(O)OCC1OC(n2cnc3c(N)ncnc32)C(O)C1OP(=O)(O)O)C(=O)NCC(N)=O (stereo not given) | > 100 | > 100 µM | > 100 µM | > 100 µM | > 100 µM | > 100 |  | 9.04 | > 100 | > 100 |  |  |  |  |  |  |  |  |  | 
C=C1C(O)C2C(=C(CC(C)C)C13CC3)C(=O)C(C)(C)C2OC (stereo not given) | > 100 | > 100 µM | > 100 µM | > 100 µM | > 100 µM | > 100 | > 100 µM |  |  | > 100 |  | > 100 | > 100 | > 100 | > 100 | 97 | > 100 | 65.3 |  | 81.5
COC(=O)/C(=N/NC(C)(C)C)C(C(=O)C=C(C)C)C(=O)C(=O)Nc1ccc(Cl)cc1C (stereo not given) | > 100 | > 100 µM | > 100 µM | > 100 µM | > 100 µM | > 100 | > 100 µM |  | > 100 |  |  |  |  |  |  |  |  |  |  | 
CC(C)(C)N=CN1CCC(C(c2ccccc2)c2ccccc2)CC1 | > 100 | > 100 µM | > 100 µM | > 100 µM | > 100 µM | > 100 | > 100 µM | > 100 |  | > 100 |  |  |  |  |  |  |  |  |  | 
O=C(N=Nc1c(O)[nH]c2ccccc12)c1ccccc1O | > 100 | > 100 µM | > 100 µM | 92 µM | 94.6 µM | > 100 | > 100 µM | 94.2 | > 100 |  |  |  |  |  |  |  |  |  |  | 
Cc1cc2occ(C)c(=O)c2c2c1OC(C)(C)S2 | > 100 | > 100 µM | > 100 µM | > 100 µM |  | > 100 | > 100 µM | > 100 | > 100 | > 100 |  |  |  |  |  |  |  |  |  | 
CC(O)C(NC(=O)C(CS)NC(=O)C(CO)NC(=O)C(CCCCN)NC(=O)C(Cc1c[nH]c2ccccc12)NC(=O)C(Cc1ccc(O)cc1)NC(=O)C(CS)NC(=O)C(N)Cc1ccccc1)C(N)=O (stereo not given) | > 100 | > 25 µM and 53.8 µM | > 25 µM and 44.5 µM | > 25 µM and 68 µM | > 25 µM and 61.7 µM | > 25 | > 25 µM and 47.8 µM | 62.5 | > 25 |  |  |  | 20.5 |  |  |  |  | 22.3 |  | 32.9
